From patent US20230303565A1, “PESTICIDALLY ACTIVE HETEROCYCLIC DERIVATIVES WITH SULFUR CONTAINING SUBSTITUENTS” (SYNGENTA CROP PROTECTION AG, priority 2020, published 2023)

Columns and labels:
Type in all cases: in vivo
[1] = system: Frankliniella occidentalis (Western Flower Thrips); test: Activity against Frankliniella occidentalis (western flower thrips), feeding/contact activity, sunflower leaf discs; conditions: foliar, 168 h, application rate of 200 ppm, population of mixed ages, 7 days after infestation
Method: Example B4: Activity Against Frankliniella occidentalis (Western Flower Thrips) Feeding/Contact Activity
Sunflower leaf discs were placed on agar in 24-well microtiter plates and sprayed with aqueous test solutions prepared from […] stock solutions. After drying the leaf discs were infested with a Frankliniella population of mixed ages. The samples were assessed for mortality 7 days after infestation.

[2] = system: Plutella xylostella (Diamond Back Moth); test: Activity against Plutella xylostella (diamond back moth), artificial diet in 24-well plates; conditions: 192 h, application rate of 200 ppm, Plutella eggs, 8 days after infestation, in comparison to untreated samples, read-out: effect in at least one of the two categories (mortality or growth inhibition)
Method: Example B6: Activity Against Plutella xylostella (Diamond Back Moth)
24-well microtiter plates with artificial diet were treated with aqueous test solutions prepared from 10′000 ppm DMSO stock solutions by pipetting. After drying, Plutella eggs were pipetted through a plastic stencil onto a gel blotting paper and the plate was closed with it. The samples were assessed for mortality and growth inhibition in comparison to untreated samples 8 days after infestation.

[3] = system: Spodoptera littoralis (Egyptian Cotton Leaf Worm); test: Activity against Spodoptera littoralis (Egyptian cotton leaf worm), cotton leaf discs; conditions: foliar, 72 h, application rate of 200 ppm, L1 larvae, 3 days after infestation, in comparison to untreated samples, read-out: control (at least one of mortality, anti-feedant effect, growth inhibition)
Method: Example B7: Activity Against Spodoptera littoralis (Egyptian Cotton Leaf Worm)
Cotton leaf discs were placed onto agar in 24-well microtiter plates and sprayed with aqueous test solutions prepared from 10′000 ppm DMSO stock solutions. After drying the leaf discs were infested with five L1 larvae. The samples were assessed for mortality, anti-feeding effect, and growth inhibition in comparison to untreated samples 3 days after infestation. Control of Spodoptera littoralis by a test sample is given when at least one of the categories mortality, anti-feedant effect, and growth inhibition is higher than the untreated sample.

[4] = system: Diabrotica Balteata (Corn Root Worm); test: Activity against Diabrotica balteata (corn root worm), maize sprouts on agar; conditions: 96 h, application rate of 200 ppm, L2 larvae, 4 days after infestation, in comparison to untreated samples, read-out: effect in at least one of the two categories (mortality or growth inhibition)
Method: Example B2: Activity Against Diabrotica Balteata (Corn Root Worm)
Maize sprouts placed onto an agar layer in 24-well microtiter plates were treated with aqueous test solutions prepared from 10′000 ppm DMSO stock solutions by spraying. After drying, the plates were infested with L2 larvae (6 to 10 per well). The samples were assessed for mortality and growth inhibition in comparison to untreated samples 4 days after infestation.

[5] = system: Euschistus heros (Neotropical Brown Stink Bug); test: Activity against Euschistus heros (neotropical brown stink bug), soybean leaves on agar; conditions: 120 h, application rate of 200 ppm, N2 nymphs, 5 days after infestation, in comparison to untreated samples, read-out: effect in at least one of the two categories (mortality or growth inhibition)
Method: Example B3: Activity Against Euschistus heros (Neotropical Brown Stink Bug)
Soybean leaves on agar in 24-well microtiter plates were sprayed with aqueous test solutions prepared from 10′000 ppm DMSO stock solutions. After drying the leaves were infested with N2 nymphs. The samples were assessed for mortality and growth inhibition in comparison to untreated samples 5 days after infestation.

[6] = system: Myzus persicae (Green Peach Aphid); test: Activity against Myzus persicae (green peach aphid), feeding/contact activity, sunflower leaf discs; conditions: foliar, 144 h, application rate of 200 ppm, aphid population of mixed ages, 6 days after infestation
Method: Example B5: Activity Against Myzus persicae (Green Peach Aphid) Feeding/Contact Activity
Sunflower leaf discs were placed onto agar in a 24-well microtiter plate and sprayed with aqueous test solutions prepared from 10′000 ppm DMSO stock solutions. After drying, the leaf discs were infested with an aphid population of mixed ages. The samples were assessed for mortality 6 days after infestation.

[7] = system: Chilo suppressalis (Striped Rice Stemborer); test: Activity against Chilo suppressalis (striped rice stemborer), artificial diet in 24-well plates; conditions: 144 h, application rate of 200 ppm, L2 larvae, 6 days after infestation, in comparison to untreated samples, read-out: control (at least one of mortality, anti-feedant effect, growth inhibition)
Method: Example B1: Activity Against Chilo suppressalis (Striped Rice Stemborer)
24-well microtiter plates with artificial diet were treated with aqueous test solutions prepared from 10′000 ppm DMSO stock solutions by pipetting. After drying, the plates were infested with L2 larvae (6-8 per well). The samples were assessed for mortality, anti-feeding effect, and growth inhibition in comparison to untreated samples 6 days after infestation. Control of Chilo suppressalis by a test sample is given when at least one of the categories mortality, anti-feedant effect, and growth inhibition is higher than the untreated sample.

[8] = system: Carpocapsa (Cydia) Pomonella (Codling Moth); test: Activity against Carpocapsa (Cydia) pomonella (codling moth), larvicide, feeding/contact, diet cubes; conditions: 336 h, application rate of 12.5 ppm, L1 larvae, 14 days after infestation, 26-27° C.
Method: Example B9: Activity Against Carpocapsa (Cydia) Pomonella (Codling Moth)) Larvicide, Feeding/Contact
Diet cubes coated with paraffin were sprayed with diluted test solutions in an application chamber. After drying off the treated cubes (10 replicates) were infested with 1 L1 larvae. Samples were incubated at 26-27° C. and checked 14 days after infestation for mortality and growth inhibition.

[9] = system: Bemisia tabaci (Cotton White Fly); test: Activity against Bemisia tabaci (cotton white fly), cotton leaf discs; conditions: foliar, 144 h, application rate of 200 ppm, adult white flies, 6 days after incubation
Method: Example B8: Activity Against Bemisia tabaci (Cotton White Fly)
Cotton leaf discs were placed on agar in 24-well microtiter plates and sprayed with aqueous test solutions prepared from 10′000 ppm DMSO stock solutions. After drying the leaf discs were infested with adult white flies. The samples were checked for mortality 6 days after incubation.

CCS(=O)(=O)c1c(N2Cc3ccc(C4(C#N)CC4)cc3C2=O)nc2ccc(C(F)(F)F)cn12 [P1, 1-[2-[3-ethylsulfonyl-6-(trifluoromethyl)imidazo[1,2-a]pyridin-2-yl]-3-oxo-isoindolin-5-yl]cyclopropanecarbonitrile]
≥ 80%: mortality at 200 ppm [1] | percent effect (mortality or growth inhibition) at 200 ppm [2] | percent control (mortality, anti-feedant effect or growth inhibition) at 200 ppm [3] | percent effect (mortality or growth inhibition) at 200 ppm [4] | percent effect (mortality or growth inhibition) at 200 ppm [5] | mortality at 200 ppm [6] | percent control (mortality, anti-feedant effect or growth inhibition) at 200 ppm [7] | mortality at 12.5 ppm [8]

CCS(=O)(=O)c1c(N2Cc3cnc(C4CC4)cc3C2=O)nc2ccc(C(F)(F)F)cn12 [P10, 6-cyclopropyl-2-[3-ethylsulfonyl-6-(trifluoromethyl)imidazo[1,2-a]pyridin-2-yl]-3H-pyrrolo[3,4-c]pyridin-1-one]
≥ 80%: percent effect (mortality or growth inhibition) at 200 ppm [2] | percent control (mortality, anti-feedant effect or growth inhibition) at 200 ppm [3] | percent effect (mortality or growth inhibition) at 200 ppm [4] | percent control (mortality, anti-feedant effect or growth inhibition) at 200 ppm [7]

CCS(=O)(=O)c1c(N2Cc3ccc(C4(C#N)CC4)cc3C2=O)nc2ccc(C3(C#N)CC3)cn12 [P6, 1-[2-[6-(1-cyanocyclopropyl)-3-ethylsulfonyl-imidazo[1,2-a]pyridin-2-yl]-3-oxo-isoindolin-5-yl]cyclopropanecarbonitrile]
≥ 80%: mortality at 200 ppm [1] | percent effect (mortality or growth inhibition) at 200 ppm [2] | percent control (mortality, anti-feedant effect or growth inhibition) at 200 ppm [3] | mortality at 200 ppm [9] | percent effect (mortality or growth inhibition) at 200 ppm [4] | mortality at 200 ppm [6] | percent control (mortality, anti-feedant effect or growth inhibition) at 200 ppm [7] | mortality at 12.5 ppm [8]

CCS(=O)(=O)c1c(N2Cc3ccc(C4(C#N)CC4)cc3C2=O)nn2ccc(C(F)(F)F)cc12 [P3, 1-[2-[3-ethylsulfonyl-5-(trifluoromethyl)pyrazolo[1,5-a]pyridin-2-yl]-3-oxo-isoindolin-5-yl]cyclopropanecarbonitrile]
≥ 80%: percent effect (mortality or growth inhibition) at 200 ppm [2] | percent control (mortality, anti-feedant effect or growth inhibition) at 200 ppm [3] | mortality at 200 ppm [9] | percent effect (mortality or growth inhibition) at 200 ppm [4] | percent control (mortality, anti-feedant effect or growth inhibition) at 200 ppm [7]

CCS(=O)(=O)c1c(N2Cc3ccc(C4(C#N)CC4)cc3C2=O)nc2ccc(C(C)(F)F)cn12 [P4, 1-[2-[6-(1,1-difluoroethyl)-3-ethylsulfonyl-imidazo[1,2-a]pyridin-2-yl]-3-oxo-isoindolin-5-yl]cyclopropanecarbonitrile]
≥ 80%: percent effect (mortality or growth inhibition) at 200 ppm [2] | percent control (mortality, anti-feedant effect or growth inhibition) at 200 ppm [3] | mortality at 200 ppm [9] | percent effect (mortality or growth inhibition) at 200 ppm [4] | mortality at 200 ppm [6] | percent control (mortality, anti-feedant effect or growth inhibition) at 200 ppm [7] | mortality at 12.5 ppm [8]

CCS(=O)(=O)c1c(N2Cc3ccc(C4CC4)cc3C2=O)nc2ccc(C(F)(F)F)cn12 [P12, 6-cyclopropyl-2-[3-ethylsulfonyl-6-(trifluoromethyl)imidazo[1,2-a]pyridin-2-yl]isoindolin-1-one]
≥ 80%: percent effect (mortality or growth inhibition) at 200 ppm [2] | percent control (mortality, anti-feedant effect or growth inhibition) at 200 ppm [3] | percent effect (mortality or growth inhibition) at 200 ppm [4] | percent control (mortality, anti-feedant effect or growth inhibition) at 200 ppm [7]

CCS(=O)(=O)c1c(N2Cc3ccc(C4(C#N)CC4)cc3C2=O)nc2ccc(C(C)(C)C#N)cn12 [P7, 1-[2-[6-(1-cyano-1-methyl-ethyl)-3-ethylsulfonyl-imidazo[1,2-a]pyridin-2-yl]-3-oxo-isoindolin-5-yl]cyclopropanecarbonitrile]
≥ 80%: percent effect (mortality or growth inhibition) at 200 ppm [2] | percent control (mortality, anti-feedant effect or growth inhibition) at 200 ppm [3] | percent effect (mortality or growth inhibition) at 200 ppm [4] | percent control (mortality, anti-feedant effect or growth inhibition) at 200 ppm [7]

CCS(=O)(=O)c1c(N2Cc3ccc(C4(C#N)CC4)cc3C2=O)nc2ccc(C3CC3)cn12 [P5, 1-[2-(6-cyclopropyl-3-ethylsulfonyl-imidazo[1,2-a]pyridin-2-yl)-3-oxo-isoindolin-5-yl]cyclopropanecarbonitrile]
≥ 80%: percent effect (mortality or growth inhibition) at 200 ppm [2] | percent control (mortality, anti-feedant effect or growth inhibition) at 200 ppm [3] | percent effect (mortality or growth inhibition) at 200 ppm [4] | percent control (mortality, anti-feedant effect or growth inhibition) at 200 ppm [7]

CCS(=O)(=O)c1c(N2Cc3ccc(S(=O)(=O)C4CC4)cc3C2=O)nc2ccc(C(F)(F)F)cn12 [P8, 6-cyclopropylsulfonyl-2-[3-ethylsulfonyl-6-(trifluoromethyl)imidazo[1,2-a]pyridin-2-yl]isoindolin-1-one]
≥ 80%: percent effect (mortality or growth inhibition) at 200 ppm [2] | percent control (mortality, anti-feedant effect or growth inhibition) at 200 ppm [3] | percent effect (mortality or growth inhibition) at 200 ppm [4] | mortality at 200 ppm [6] | percent control (mortality, anti-feedant effect or growth inhibition) at 200 ppm [7] | mortality at 12.5 ppm [8]

CCS(=O)(=O)c1c(N2Cc3ccc(OC(C)(C)C#N)cc3C2=O)nc2ccc(C(F)(F)F)cn12 [P9, 2-[2-[3-ethylsulfonyl-6-(trifluoromethyl)imidazo[1,2-a]pyridin-2-yl]-3-oxo-isoindolin-5-yl]oxy-2-methyl-propanenitrile]
≥ 80%: percent effect (mortality or growth inhibition) at 200 ppm [2] | percent control (mortality, anti-feedant effect or growth inhibition) at 200 ppm [3] | mortality at 200 ppm [9] | percent effect (mortality or growth inhibition) at 200 ppm [4] | mortality at 200 ppm [6] | percent control (mortality, anti-feedant effect or growth inhibition) at 200 ppm [7]

CCS(=O)(=O)c1c(N2Cc3ncc(C4CC4)cc3C2=O)nc2ccc(C(F)(F)F)cn12 [P11, 3-cyclopropyl-6-[3-ethylsulfonyl-6-(trifluoromethyl)imidazo[1,2-a]pyridin-2-yl]-7H-pyrrolo[3,4-b]pyridin-5-one]
≥ 80%: percent effect (mortality or growth inhibition) at 200 ppm [2] | percent control (mortality, anti-feedant effect or growth inhibition) at 200 ppm [3] | percent control (mortality, anti-feedant effect or growth inhibition) at 200 ppm [7]
